Reference: patent publication US20110028458A1, “INHIBITION OF CELL MIGRATION BY A FARNESYLATED DIBENZODIAZEPINONE” (THALLION PHARMACEUTICALS INC., priority 2008, published 2011)
Read-outs that look alike come from different tables or passages of the source.

Assays:
[1] = tested on: breast carcinoma tumor cell lines; assay: NCI panel, breast carcinoma; assay type: cell-based; conditions: Homo sapiens; read-out: GI50 range, breast carcinoma
From the text: (§1) A study measuring the in vitro cytotoxic activity of Compound 1 was first performed by the NCI (National Cancer Institute, U.S. National Institutes of Health, Bethesda, Md., USA) against a panel of human cancer cell lines. This screen utilizes 60 different human tumor cell lines, representing cancers of the blood, skin, lung, colon, brain, ovary, breast, prostate, and kidney. Further information regarding the NCI panel of human cancer lines can be obtained by following the links at the NCI world-wide website of the National Cancer Institute. The compound was sent and tested on three occasions (Mar. 31, 2003; Dec. 1, 2003; Mar. 27, 2007).

[2] = tested on: ovarian carcinoma tumor cell lines; assay: NCI panel, ovarian carcinoma; assay type: cell-based; conditions: Homo sapiens; read-out: GI50 range, ovarian carcinoma
From the text: as §1

[3] = tested on: 60 different human tumor cell lines; assay: NCI in vitro screening, 60 human tumor cell lines; assay type: cell-based; conditions: 60 cell lines
From the text: as §1

[4] = TLN-4601 concentrations in plasma and tissues of rats with C6 orthotopic brain tumors; assay type: in vivo; conditions: rat; for concentration at 60 min: CIV for 60 min
Experimental: (R)-1-(2-chlorophenyl)-[…]N-(1-methyl-propyl)-3-isoquinoline carboxamide (R N-desmethyl PK11195), the precursor for the radioisotope-labeled (R)-PK11195, was purchased from ABX (Radeburg, Germany). The synthesis of ^11C-(R)-PK11195 was accomplished by a modification of the method of Camsonne et al. (J. Label. Compd. Radiopharm., 21: 985-991, 1984). In vivo PET studies were performed 14 days post tumor implantation. PET imaging studies were performed while the animals were anesthetized and placed in the supine position on the bed and at the center of the FOV of the CTI Concorde R4 microPET scanner (Siemens/CTI Concorde, Knoxville, Tenn.). Each dynamic PET study lasted 60 min and was initiated with an IV bolus administration of 11C-PK11195 (7.1-12.7 MBq) radioligand via the tail vein. Receptor occupancy studies were performed by acquisition of 11C-PK11195 images prior to and during TLN-4601 treatment over 60 minutes. TLN-4601 was administered by a bolus IV infusion (30 mg/kg) followed by continuous IV infusion (5 mg/h/kg) lasting through the dynamic scan. Attenuation correction factors, for each 6 rats, were determined using a 10 minute 57 Co transmission scan acquired immediately prior to the dynamic scan. In addition, all images were scatter corrected.
Following completion of in vivo studies, animals were sacrificed by anesthetic overdose and decapitated. Brain, tumor, and liver were snap-frozen in liquid nitrogen and stored frozen (−70° C.±10° C.). For blood samples, each blood sample was collected into a K2-EDTA tube and kept on wet ice for a maximum of 30 minutes. Blood samples were centrifuged under refrigeration (2 to 8° C.) for 10 minutes at 1,500 g (RCF). A volume of 25 μL of aqueous 4% w/v L-ascorbic acid was added to a volume of 225 μL of rat plasma in a clean tube, and the samples were thoroughly mixed by inversion. A volume of 125 uL of the resulting mixture was transferred to a separate tube for bioanalysis, while the remaining mixture was maintained as a backup, and both the bioanalysis and back-up portions were frozen on dry ice and stored frozen (−70° C.±10° C.).
Rat plasma and tissue samples were extracted with 9 volumes of acetone containing 100 ng/mL of the internal standard (Compound 2) and analysed by HPLC/MS/MS as described in Gourdeau et al (Cancer Chemother Pharmacol vol 61 pp. 911-921).

[5] = tested on: colon carcinoma tumor cell lines; assay: NCI panel, colon carcinoma; assay type: cell-based; conditions: Homo sapiens; read-out: GI50 range, colon carcinoma
From the text: as §1

SRBC = assay: Hemolysis of SRBC; assay type: cell-based
U87 parental = assay: Caspase-3 activity, U87 parental cells; assay type: cell-based, human; conditions: 18 h, serum-free medium
Experimental: Firstly, cells (U87 parental, U87 transfected with EGFR-WT, and U87 transfected with mutated EGFR VIII) were plated in 6 well plates in DMEM containing 10% FBS. The following day, the plated cells were treated with increasing concentrations of Compound 1 (TLN-4601) in serum-free medium. After an 18 h incubation period in the presence of Compound 1, the treated cells were measured for caspase-3 activity using a commercial kit.

[6] = tested on: U87 glioma cells and HVMEC-B; assay: Fluorimetric caspase-3 activity, U87 glioma versus brain endothelial cells; assay type: cell-based, human; conditions: 0-30 μM, 18 hours
Experimental: To test the effect of Compound 1 on caspase 3 activity in endothelial cells, the following experiment was conducted. HVMEC-B and U87 glioma cells were treated with increasing concentrations of Compound 1 (0-30 μM) in serum-free media for 18 hours. Fluorimetric caspase-3 activity assay was performed as follows: cells were grown to about 60% confluence in 6-well dishes and treated with increasing concentrations of Compound 1 for 18 hours. Cells were then collected and washed in ice-cold PBS pH 7.0. Cells were subsequently lysed in Apo-Alert lysis buffer (Clontech, Palo Alto, Calif.) for 1 hr at 4° C. and the lysates were clarified by centrifugation. Caspase-3 activity was determined by incubation with 50 μM caspase-3-specific fluorogenic peptide substrate acetyl-Asp-Glu-Val-Asp-7-amino-4-trifluoromethylcoumarin (Ac-DEVD-AFC) in 96-well plates. The release of AFC was monitored for at least 30 min at 37° C. on a fluorescence plate reader (Molecular Dynamics (Amersham Biosciences Inc, Sunnyvale, Calif.)) (λex=400 nm, λem=505 nm).

[7] = tested on: HT-29 (colorectal carcinoma); assay: In vitro cytotoxic activity, propidium iodide, HT-29; assay type: cell-based, human; conditions: 96 hrs
[8] = tested on: MDA-MB-231 (mammary gland adenocarcinoma); assay: In vitro cytotoxic activity, propidium iodide, MDA-MB-231; assay type: cell-based, human; conditions: 96 hrs
[9] = tested on: central benzodiazepine receptor (CBR; GABAA); assay: CBR (GABAA) radioligand binding assay, [3H]flunitrazepam, rat brain; conditions: 10 μM
From the text: (§2) The procedures used were based on known assays: ACAT (from rat; Ref: Largis et al (1989), J. Lipid. Res., vol 30, 681-689), COX-2 (human; Ref: Riendeau et al (1997), Can. J. Physiol. Pharmacol., vol 75, 1088-1095 and Warner et al (1999), Pro. Natl. Acad Sci. USA, vol 96, 7563-7568), 5-LO (human; Ref: Carter et al (1991), J. Pharmacol. Exp. Ther., vol 256, no 3, 929-937, and Safayhi et al (2000), Planta Medica, vol 66, 110-113), PBR (from rat; Le Fur et al (1983), Life Sci. USA, vol 33, 449-457), CysLT1 (human; Martin et al (2001), Biochem. Pharmacol., vol 62, no 9, 1193-1200) and CBR (from rat; Damm et al (1978), Res. Comm. Chem. Pathol. Pharmacol., vol 22, 597-600 and Speth et al (1979), Life Sci., vol 24, 351-357).
(§3) Binding Assays were done at constant concentration of the compound, in 1% DMSO as vehicle, and are specified below each enzyme/receptor type in Table 3. Significance was obtained when a result was ≧50% binding or inhibition (underlined).
As Compound 1 was isolated from structural prediction through genetic analysis and activity identified through in vitro cytotoxic assays, its molecular target(s) were unknown at the time of discovery. Based on the structural characteristics of TLN-4601, we first investigated its binding affinity to the central (GABAA; CBR;) and peripheral (PBR) benzodiazepine receptors. The effect of TLN-4601 on CBR (GABAA) and PBR was initially evaluated in a radioligand-binding assay at MDS Pharma Services (Taipei, Tawain). CBR and PBR were obtained from rat brain and heart membrane-fractions, respectively. Displacement assays were done in the presence of 1 nM [^3H]-Flunitrazepam (CBR; GABAA) or 0.3 nM of [^3H]-PK11195 (PBR). TLN-4601 was tested at 0.01, 0.1, 0.5, 1, 5 and 10 μM. Non-specific binding was estimated in the presence of 10 μM diazepam (CBR) or 100 μM dipyrimadole (PBR) and assays were performed according to previous described methods (Damm et al Res Commun Chem Pathol Pharmacol 22, pp 597-600; Le Fur et al (1983) Life Science 33, pp 449-57). […] This contrats with current specific PBR ligands, which bind the PBR with nanomolar affinity yet their effect on cell proliferation, is in the micromolar range.

ACAT = ACAT enzyme assay, [14C]cholesterol ester quantitation; assay type: biochemical, rat; conditions: 10 μM
From the text: as §2
Binding assays were done for each of Compounds 1-12 and 46 using ACAT, COX-2, 5-LO, PBR and CysLT1 enzymes. The procedures used are based on the respective references mentioned above and the conditions are summarized in Tables 1 (enzyme assays) and 2 (radioligand receptor assays).
as §3

SF268 (CNS) = assay: In vitro cytotoxic activity, propidium iodide, SF-268; assay type: cell-based, human; conditions: 96 hrs
[10] = tested on: PC-3 (prostate adenocarcinoma); assay: In vitro cytotoxic activity, propidium iodide, PC-3; assay type: cell-based, human; conditions: 96 hrs
MDA-MB-231 = assay: MTT growth inhibitory assay, MDA-MB-231; assay type: cell-based, human; conditions: 72 hours
Experimental: (§4) Growth inhibitory activity of TLN-4601 (Compound 1) and other dibenzodiazepinone analogs was evaluated on a panel of 4 human tumor cell lines: the human uterine sarcoma MES-SA and its doxorubicin-resistant P-glycoprotein over-expressing variant, MES-SA/DX5 as well as non-aggressive and highly aggressive human breast cell lines, MCF-7 and MDA-MB-231, respectively. These four cell lines were obtained from the American Type Culture Collection (Manassas, Va.) and cultured in RPMI plus 10% fetal bovine serum (FBS) and maintained at 37° C. with 5% CO2.
(§5) Exponentially growing cells (5,000 cells per well time; cell number determined with a hemocytometer) were seeded in 96-well flat-bottom plates and allowed to grow overnight. Cells were then incubated for 72 hours with three different concentrations of TLN-4601 or analogs: 30, 10, and 3 μM. The in vitro growth inhibitory activity was determined by a commercial MTT assay. All measurements were done in quadruplicate and each experiment was performed 2-3 times. The lower the value, the more cytotoxic is the compound.

MCF-7 = assay: MTT growth inhibitory assay, MCF-7; assay type: cell-based, human; conditions: 72 hours
Experimental: as §4, §5

PBR = biological target: T1, PBR (Rattus norvegicus, UniProt P16257); assay: In-house PBR binding assay, [3H]PK11195, rat heart mitochondrial membrane
T1 construct: containing the enriched mitochondria membrane preparation (25 μg of protein); from tissue; host or cells: Sprague Dawley rat heart, enriched mitochondrial membrane preparation
Experimental: Hearts obtained from 3 Sprague Dawley rats were homogenized in 20 volumes of ice-cold 50 mM Tris-HCl, pH 7.5. After two centrifugations at 1500 g for 10 minutes at 4° C., the supernatant was centrifuged at 48000 g for 20 minutes at 4° C. The resulting pellet was resuspended in 50 mM Tris-HCl pH 7.5 and protein concentration was estimated by the Bradford colorimetric staining method using BSA as the standard. […] In parallel, non-specific binding was measured with the presence of 20 μM cold PK11195. Samples were distributed onto 96-well GF/B filtration plates and incubated for 60 minutes at 25° C. and then washed once with PBR-binding buffer.

MES-SA = assay: MTT growth inhibitory assay, MES-SA; assay type: cell-based, human; conditions: 72 hours
Experimental: as §4, §5

MES-SA/DX5 = assay: MTT growth inhibitory assay, MES-SA/DX5; assay type: cell-based, human; conditions: 72 hours
Experimental: as §4, §5

Row | Compound | Hemolysis ED50 (concentration necessary to achieve 50% hemolysis of SRBC) (SRBC) | GI50 [7] | GI50 [8] | Percentage of inhibition or binding activity, CBR [9] | Percentage of inhibition or binding activity, ACAT (ACAT) | GI50 (SF268 (CNS)) | GI50 [10] | % T/C at 10 μM, MDA-MB-231 (MDA-MB-231) | % T/C at 10 μM, MCF-7 (MCF-7) | % T/C at 10 μM, MES-SA (MES-SA) | % T/C at 10 μM, MES-SA/DX5 (MES-SA/DX5) | other results
1 | CC(C)=CCC/C(C)=C/CC/C(C)=C/CN1C(=O)c2cccc(O)c2Nc2c(O)cc(O)cc21 [Compound 1, 10-farnesyl-4,6,8-trihydroxy-5,10-dihydrodibenzo[b,e][1,4]diazepin-11-one] | 7.6 µg/mL | – | – | – | – | – | – | – | – | – | – | GI50 [1]: 1.4 to 16.3 µM; GI50 [2]: 2.5 to 6.2 µM; cytotoxic activity in the NCI panel [3]: broad cytotoxic activity in the low micromolar range; concentration at 60 min ([4]; Sprague-Dawley, liver, intravenous, read-out: concentration in liver): 24800 ng/g; concentration at 60 min ([4]; Sprague-Dawley, plasma, intravenous, read-out: concentration in plasma): 16200 ng/g; Kp at 60 min ([4]; Sprague-Dawley, tumor / plasma, intravenous, read-out: tumor compared to plasma): 11; concentration at 60 min ([4]; Sprague-Dawley, tumor, intravenous, read-out: accumulation in the tumor): 176 µg/mL; tumor compared to liver ([4]; in vivo): 7 fold; GI50 [5]: 3 to 17.3 µM; increase in caspase-3 activation (U87 parental): approximately 15 fold; caspase-3 activity of U87 glioma cells compared to normal human brain endothelial cells [6]: 2-3 fold
2 | CC(=O)Oc1cc(O)c2c(c1)N(CC=C(C)CCC=C(C)CCC=C(C)C)C(=O)c1cccc(OC(C)=O)c1N2 [Compound 11] | 9.8 µg/mL | 16 µM | 7.72 µM | 20% | 71% | 5.79 µM | 5.35 µM | – | – | – | – | –
3 | CC(=O)Oc1cc(OC(C)=O)c2c(c1)N(CC=C(C)CCC=C(C)CCC=C(C)C)C(=O)c1cccc(OC(C)=O)c1N2 [Compound 12] | >64 µg/mL | 9.33 µM | 2.79 µM | −24% | 83% | 1.95 µM | 1.2 µM | – | – | – | – | –
4 | CC(C)=CCC/C(C)=C/CC/C(C)=C/CN1C(=O)c2cccc(O)c2Nc2c1cc(O)c(Br)c2O [Compound 97] | 15.1 µg/mL | – | – | – | – | – | – | 68% | 28% | 80% | 83% | IC50 (PBR): 2.6 µM
5 | CC(C)=CCC/C(C)=C/CC/C(C)=C/CN1C(=O)c2cccc(O)c2N(C)c2c1cc(O)c(Br)c2O [Compound 99] | – | – | – | – | – | – | – | 55% | 50% | 28% | 24% | –
